Experiments:
hGal-3 = hGal-3 (Homo sapiens, UniProt P17931); test: ITC; type: binding
hGal-1 = hGal-1 (Homo sapiens, UniProt P09382); test: ITC; type: binding
Chain of hGal-1 (P09382 2-135): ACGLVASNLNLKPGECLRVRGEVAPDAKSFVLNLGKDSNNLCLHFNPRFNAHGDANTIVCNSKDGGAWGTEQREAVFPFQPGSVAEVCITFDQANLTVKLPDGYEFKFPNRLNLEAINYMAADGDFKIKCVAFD

Chain of hGal-3 (P17931 2-250): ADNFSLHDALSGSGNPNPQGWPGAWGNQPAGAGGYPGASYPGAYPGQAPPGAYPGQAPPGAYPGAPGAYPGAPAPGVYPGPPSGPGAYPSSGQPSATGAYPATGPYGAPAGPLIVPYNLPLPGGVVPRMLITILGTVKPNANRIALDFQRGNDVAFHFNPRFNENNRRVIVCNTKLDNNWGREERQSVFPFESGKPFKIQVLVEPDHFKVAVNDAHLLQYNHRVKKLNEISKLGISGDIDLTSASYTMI

| Kd (hGal-1) | Structure (SMILES) | Kd (hGal-3) |
| --- | --- | --- |
| – | OC[C@H]1O[C@@H]([Se][Se][C@@H]2O[C@H](CO)[C@H](O)[C@H](O)[C@H]2O)[C@H](O)[C@@H](O)[C@H]1O [DSeDG] | 2800 ± 180 µM |
| 94.7 ± 2.2 µM | CC(=O)N[C@H]1[C@H](O[C@H]2[C@@H](O)[C@@H](CO)O[C@@H](O[C@H]3[C@H](O)[C@@H](NC(C)=O)[C@H](OCCN=[N+]=[N-])O[C@@H]3CO)[C@@H]2O)O[C@H](CO)[C@@H](O[C@@H]2O[C@H](CO)[C@H](O)[C@H](O)[C@H]2O)[C@@H]1O [compound 1, 2‐Azidoethyl (β‐D‐galactopyranosyl)‐(1→4)‐(2‐acetamido‐2‐deoxy‐β‐D‐glucopyranosyl)‐(1→3)‐(β‐D‐galactopyranosyl)‐(1→4)‐2‐acetamido‐2‐deoxy‐β‐D‐glucopyranoside] | 5.6 ± 0.1 µM |
| 175 ± 3.2 µM | CC(=O)N[C@H]1[C@H](O[C@H]2[C@@H](O)[C@@H](CO)O[C@@H](O[C@H]3[C@H](O)[C@@H](O)[C@H](OCCCN)O[C@@H]3CO)[C@@H]2O)O[C@H](CO)[C@@H](O)[C@@H]1O[C@@H]1O[C@H](CO)[C@H](O)[C@H](O)[C@H]1O [compound 2, 3‐Aminopropyl (β‐D‐galactopyranosyl)‐(1→3)‐(2‐acetamido‐2‐deoxy‐β‐D‐glucopyranosyl)‐(1→3)‐(β‐D‐galactopyranosyl)‐(1→4)‐β‐D‐glucopyranoside] | 28.1 ± 0.5 µM |

| Structure (SMILES) | Kd (hGal-1) | Kd (hGal-3) |
| --- | --- | --- |
| OC[C@H]1O[C@@H]([Se][C@@H]2O[C@H](CO)[C@H](O)[C@H](O)[C@H]2O)[C@H](O)[C@@H](O)[C@H]1O [SeDG] | 108 ± 1.4 µM | 93.1 ± 2.6 µM |

Reference: article PMC7839768 (Chemistry (Weinheim an Der Bergstrasse, Germany), 2020)
